What was measured:
human PDHK2 (12-407) = human PDHK2 (12-407) (Homo sapiens (Human), UniProt Q15119); assay: Isothermal titration calorimetry (ITC); settings: 30° C., pH 7.5; read-out: Binding (ITC) KD
Experimental: Isothermal Titration Calorimetry
ITC measurements were performed with a VP-ITC micro calorimeter (Microcal, LLC/GE Healthcare Bio-Sciences AB, Uppsala, Sweden). In general titrations were performed by titrating the protein (50 μM) to the test compound (5 μM) in 12 μl injections. All binding experiments were carried out at 30° C. In general the test compounds were diluted form DMSO stock solutions into the measurement buffer with a maximum final concentration of 1% DMSO. The measurement buffer was 20 mM HEPES, 135 mM KCl, 1 mM TCEP, 2 mM MgCl2, 15 mM NaH2PO4, pH 7.5. The human PDHK2 (12-407) was produced in E. coli as his-tagged protein and purified by affinity chromatography. The tag was removed by side specific proteolysis. Before titration the protein buffer was changed to the measurement buffer containing the same DMSO concentration as the test compound dilution. ITC data analysis was performed using Origin 7 calorimetry software from the same supplier. For most measurements a binding model of one binding site was assumed. According to the applied mathematical model it is possible to calculate the binding constant (KA), the observed binding enthalpy (ΔH^obs) as well as the stoichiometry (N) of the formed complex. Preceding analysis the raw data was corrected for the heats of dilution by extrapolating from the saturation value from the end of titration. In order to allow for direct comparison between the respective experimental series and protein preparations the protein concentration was corrected by referencing titrations to a well behaved standard inhibitor. The apparent stoichiometry values defined the fraction of binding competent protein and compensated for relative errors in protein concentration measurements. This corrected protein concentration was used to set up ITC experiment series with test compounds. Any deviations from ideal 1:1 stoichiometry observed here were attributed to errors in compound concentration. This nominal compound concentration was corrected as well to achieve 1:1 stoichiometry in the fit.

[1] = system: PDH-E1alpha (pSer300) in HEK293T cells; assay: Cellular immunofluorescence assay (Anti-PDH-E1alpha (pSer300)) in HEK293T cells; assay type: cell-based; settings: Homo sapiens, HEK-293T, 5 hours incubation, read-out: IC50 (cell data)
Experimental: Cellular Assay for Determination of Compound Activities
Compound activities were determined in a cellular immunofluorescence assay.
Human HEK293T cells were seeded into black 384-well plates with clear bottom and grown overnight.
Next day, test compounds were added to the wells and the plates incubated for 5 hours. Following this, cells were fixed with formaldehyde, permeabilised and blocked. The primary antibody, Anti-PDH-E1alpha (pSer300), AP1064 (Merck Millipore) was added and incubated overnight in the plate wells. Next, cells were washed and the secondary antibody, Alexa Fluor 488, goat anti-rabbit ab (A-11008, Invitrogen) was added together with Hoechst 33258 (H3569, Invitrogen) and incubated for 1 hour in the plate wells. Finally, cells were washed and the plates were measured on the laser scanning cytometer acumen hci (TTpLabtech).
The raw data were normalized against a pharmacological inhibitor control and dose response curves were generated by plotting the percent effect values using the software package Genedata screener (Genedata).

PDHK2 = PDHK2 (Homo sapiens (Human), UniProt Q15119); assay: Biochemical activity testing of PDHK2: PDC inactivation assay; settings: human rec PDHK2, 5 μM ATP, read-out: IC50 PDHK2 (enzyme assay)
From the text: Biochemical Activity Testing of PDHK2: PDC Inactivation Assay
The biochemical activity assay for PDHK2 is based on the inactivation of PDC through phosphorylation by PDHK2. The assay is run in two steps: the enzymatic PDHK2 reaction in which isolated PDC is phosphorylated by PDHK2 with ATP as co-substrate and the PDC activity assay in which pyruvate and NAD are converted to acetyl-CoA and NADH. The PDC activity correlates to the increase in NADH and thereby is detectable directly via the increasing fluorescence signal (Exc 340 nm, Em 450 nm). Inhibition of PDHK2 results in a lower phosphorylation status and thereby a less decrease in activity of PDC and a stronger increase in NADH fluorescence signal.
The PDC inactivation assay is performed in Greiner 384-well microtiter plates and is used for high throughput screen. 4 μl of PDHK2 (human, rec, Carna Bioscience, 10 ng/μl-137 nM final concentration) and PDC (isolated from porcine heart, Sigma-Aldrich, 20 mU/ml final concentration) are incubated in the absence or presence of the test compound (10 dilution concentrations) for 30 min at room temperature in kinase buffer (15 mM potassium phosphate buffer, pH 7.0, 60 mM KCl, 1.5 mM DTT, 2.5 mM MgCl2, 0.0125% (w/v) BSA, 0.125% Pluronic F-68). The kinase reaction is started by the addition of 4 μl ATP substrate solution (fc 5 μM in kinase buffer). After 30 min incubation at 37° C. 40 μl of PDC reaction solution (100 mM Tris/HCl, pH 7.8, 0.5 mM EDTA, 1 mM MgCl2, 50 mM NaF, 0.25 mM Coenzyme A, 5 mM pyruvate, 1 mM NAD, 5 mM DTT, 1 mM thiamine pyrophosphate) is added. The first fluorescence measurement is performed on a Perkin Elmer Envision (Exc 340 nm, Em 450 nm). The reaction is incubated for 45 min at room temperature. Afterwards a second fluorescence measurement is performed and the PDC activity is calculated by the difference between both measurements. As full value for the PDHK2 assay the inhibitor-free PDHK2 reaction is used. The pharmacological zero value used is DCA (Sigma-Aldrich) in a final concentration of 3 mM. The inhibitory values (IC50) were determined using either the program Symyx Assay Explorer® or Condosseo® from GeneData.

Row | Structure (SMILES) | Kd (human PDHK2 (12-407)) [nM] | IC50 (PDHK2) [nM] | IC50 [1] [nM]
1 | CC(C)N(C(=O)c1ccc(C#N)cc1)C1CCN(C(=O)[C@@](C)(O)C(F)(F)F)CC1 [Compound A67, 4-Cyano-N-isopropyl-N-[1-((R)-3,3,3-trifluoro-2-hydroxy-2-methyl-propionyl)-piperidin-4-yl]-benzamide] | 470 | 1600 | 4100
2 | Cc1ccc(N(C)C(=O)C2CCN(C(=O)[C@@](C)(O)C(F)(F)F)CC2)c(F)c1 [Compound A2, 1-((R)-3,3,3-Trifluoro-2-hydroxy-2-methyl-propionyl)-piperidine-4-carboxylic acid (2-fluoro-4-methyl-phenyl)-methyl-amide] | 90 | 200 | 2600
3 | CCN(C(=O)c1ccc(C#N)cc1)C1CCN(C(=O)[C@@](C)(O)C(F)(F)F)CC1 [Compound A66, 4-Cyano-N-ethyl-N-[1-((R)-3,3,3-trifluoro-2-hydroxy-2-methyl-propionyl)-piperidin-4-yl]-benzamide] | 350 | 2100 | 2700
4 | CN(C(=O)C1CCN(C(=O)[C@@](C)(O)C(F)(F)F)CC1)c1ccc(Cl)cc1 [Compound A5, 1-((R)-3,3,3-Trifluoro-2-hydroxy-2-methyl-propionyl)-piperidine-4-carboxylic acid (4-chloro-phenyl)-methyl-amide] | 190 | 590 | 2800
5 | C[C@@H]1CN(C(=O)[C@@](C)(O)C(F)(F)F)CC[C@@H]1N(C)C(=O)c1ncc(F)cc1F [Compound A41, 3,5-Difluoro-N-methyl-N-[(3R,4S)-3-methyl-1-[(2R)-3,3,3-trifluoro-2-hydroxy-2-methylpropanoyl]piperidin-4-yl]pyridine-2-carboxamide] | 66 | 240 | 180
6 | Cc1ccc(C(=O)N(C)C2CCN(C(=O)[C@@](C)(O)C(F)(F)F)CC2)cc1 [Compound A17, N,4-Dimethyl-N-{1-[(2R)-3,3,3-trifluoro-2-hydroxy-2-methylpropanoyl]piperidin-4-yl}benzamide] | 110 | 250 | 1000
7 | CC1CN(C(=O)[C@@](C)(O)C(F)(F)F)CCC1C(=O)N(C)c1ccc(Cl)cc1 (stereo partly drawn) [Compound A9, N-(4-chlorophenyl)-N,3-dimethyl-1-[(2R)-3,3,3-trifluoro-2-hydroxy-2-methylpropanoyl]piperidine-4-carboxamide] | 100 | 270 | 230
8 | Cc1ccc(C(=O)N(C)C2CCN(C(=O)[C@@](C)(O)C(F)(F)F)CC2)c(F)c1 [Compound A18, 2-Fluoro-4,N-dimethyl-N-{1-[(R)-3,3,3-trifluoro-2-hydroxy-2-methyl-propionyl]-piperidin-4-yl}-benzamide] | 69 | 260 | 700

The next compounds have a lower Kd (human PDHK2 (12-407)) than those just listed; values first:

Row | Kd (human PDHK2 (12-407)) [nM] | IC50 (PDHK2) [nM] | Structure (SMILES) | IC50 [1] [nM]
9 | 19 | 180 | C[C@@H]1CN(C(=O)[C@@](C)(O)C(F)(F)F)CC[C@@H]1N(C)C(=O)c1ccc(F)cc1F [Compound A38, 2,4-Difluoro-N-methyl-N-[(3R,4S)-3-methyl-1-[(2R)-3,3,3-trifluoro-2-hydroxy-2-methylpropanoyl]piperidin-4-yl]benzamide] | 110
10 | 38 | 410 | CN(C(=O)C1CCN(C(=O)[C@@](C)(O)C(F)(F)F)CC1)c1ccc(C(F)(F)F)cc1Cl [Compound A3, 1-((R)-3,3,3-Trifluoro-2-hydroxy-2-methyl-propionyl)-piperidine-4-carboxylic acid (2-chloro-4-trifluoromethyl-phenyl)-methyl-amide] | 2100
11 | 37 | 310 | COc1ccc(C(=O)N(C)[C@H]2CCN(C(=O)[C@@](C)(O)C(F)(F)F)C[C@H]2C)cc1 [Compound A35, 4-Methoxy-N-methyl-N-[(3R,4S)-3-methyl-1-[(2R)-3,3,3-trifluoro-2-hydroxy-2-methylpropanoyl]piperidin-4-yl]benzamide] | 33
12 | 31 | 160 | Cc1ccc(N(C)C(=O)[C@H]2CCN(C(=O)[C@@](C)(O)C(F)(F)F)C[C@H]2C)cc1 [Compound A7, (3S,4S)—N,3-Dimethyl-N-(4-methylphenyl)-1-[(2R)-3,3,3-trifluoro-2-hydroxy-2-methylpropanoyl]piperidine-4-carboxamide] | 19
13 | 13 | 150 | C[C@@H]1CN(C(=O)[C@@](C)(O)C(F)(F)F)CC[C@@H]1N(C)C(=O)c1ccc(F)cc1Cl [Compound A50, 2-Chloro-4-fluoro-N-methyl-N-[(3R,4S)-3-methyl-1-[(2R)-3,3,3-trifluoro-2-hydroxy-2-methylpropanoyl]piperidin-4-yl]benzamide] | 61
14 | 35 | 230 | C[C@@H]1CN(C(=O)[C@@](C)(O)C(F)(F)F)CC[C@@H]1N(C)C(=O)c1ccc(C(F)(F)F)cc1F [Compound A47, 2-Fluoro-N-methyl-N-[(3R,4S)-3-methyl-1-[(2R)-3,3,3-trifluoro-2-hydroxy-2-methylpropanoyl]piperidin-4-yl]-4-(trifluoromethyl)benzamide] | 190
